Species on record: Bos taurus
Assay: In vitro inhibition of IL1-beta (interleukin-1-beta) induced degradation of bovine nasal cartilage in an organ culture assay
Format: functional

IC50 [µM]	Compound
8	O=c1cc2c3ccccc3sn2c2ccccc12
22	O=c1cc2c3cccnc3sn2c2ccccc12

Species on record: Bos taurus
Assay: In vitro inhibition of IL1-beta (interleukin-1-beta) induced degradation of bovine nasal cartilage in an organ culture assay at 30 uM
Format: functional

Compound	inhibition at 30 µM [%]
COc1cccc2c1sn1c3ccccc3c(=O)cc21	30
COc1cccc2c(=O)cc3c4ccccc4sn3c12	74
COc1cc2c(=O)cc3c4ccccc4sn3c2c(OC)c1OC	80
O=c1cc2c3ccccc3sn2c2ccc(Cl)cc12	84

— ChEMBL document CHEMBL1150010, “Inhibition of cartilage degradation by isothiazoloquinolinones” (Bioorg Med Chem Lett, 1994)
